Source: patent publication US20070078179A1, “Use of a fibrate and orlistat for the treatment of obesity” (Foumier Laboratories Ireland Limited, priority 2003, published 2007)

Test: Effect of fenofibrate and orlistat co-administration on body weight of mice fed a high-fat diet
Format: in vivo
Details: for Gain: body weight gain over 6 weeks, * p<0.05 relative to Group 5 (standard diet); for Gain / Body weight after 6 weeks: mice fed with high-fat diet, drug p.o. mixed with the diet (fenofibrate 25 mg/kg, orlistat 2.5 mg/kg), mean±sem; for Body weight after 6 weeks: in g (unit assumed)
Protocol: This study was designed to evaluate the effects of using a combination of fenofibrate and orlistat on body weight. Method Animals: Mice weighing approximately 20 g were received from CERJ. They were put into individual cages in a temperature-, humidity- and light-controlled room (21-23° C., 12-12 h light-dark cycle). […] After acclimatization, they were randomized into groups of 20 animals, based on body weight. The experimental groups were: • a Group 1: mice fed with high-fat diet • Group 2: mice fed with high-fat diet, treated with fenofibrate 25 mg/kg p.o., mixed with the diet • Group 3: mice fed with high-fat diet, treated with orlistat 2.5 mg/kg p.o., mixed with the diet • Group 4: mice fed with high-fat diet, treated with fenofibrate 25 mg/kg p.o. and orlistat 2.5 mg/kg p.o., mixed with the diet • Group 5: mice fed with standard diet Statistics: All data are presented as mean±sem. Results were subjected to Dunnett's t test. A p<0.05 was considered significant.

SMILES | Difference from mice with a standard diet (normalization of the body weight) (after 6 weeks of treatment, mice with a high-fat diet compared with mice with a standard diet, Dunnett's t test) | Gain | Body weight after 6 weeks
CCCCCCCCCCC[C@@H](C[C@@H]1OC(=O)[C@H]1CCCCCC)OC(=O)[C@H](CC(C)C)NC=O (relative stereo) [orlistat, [2S-[2α(R*),3β]]-N-formyl-L-leucine 1-[(3-hexyl-4-oxo-2-oxetanyl)methyl]dodecyl ester] | significant difference | 7.59 ± 0.28* | 27.12 ± 0.39
CC(C)OC(=O)C(C)(C)Oc1ccc(C(=O)c2ccc(Cl)cc2)cc1 [fenofibrate] | – | 7.60 ± 0.43* | 27.25 ± 0.47
